Read-outs that look alike come from different tables or passages of the source. Values belong to the compound of their own block, whether it stands above or below them.
Molecular target: T1, Recombinant human GSK3β (Homo sapiens, UniProt P49841)
T1 construct: His-tag; made in house; host or cells: Sf9 insect cells / baculovirus
Assay: GSK-3β (Glycogen Synthase Kinase) cell free enzyme assay
Format: biochemical
Conditions: for IC50: cell free enzyme assay; for inhibition at 1 µM: read-out: Percent inhibition at 1 μM
Summary of the method: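 Recombinant human GSK3β, expressed in SF9/baculovirus cells and His-tag purified on Ni-NTA Superflow, was preincubated with test agent for 30 minutes at room temperature. Substrate mix was then added to start the reaction in 8 mM MOPS (pH 7.0), 10 mM magnesium acetate, 0.2 mM EDTA, 1 mM DTT, 2 uM cold ATP, 0.025 uCi/well [33P]ATP (120 uL) and 1.0 uM biotinylated peptide. Reactions ran at RT for 60 min.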

T1 sequence (P49841 whole entry): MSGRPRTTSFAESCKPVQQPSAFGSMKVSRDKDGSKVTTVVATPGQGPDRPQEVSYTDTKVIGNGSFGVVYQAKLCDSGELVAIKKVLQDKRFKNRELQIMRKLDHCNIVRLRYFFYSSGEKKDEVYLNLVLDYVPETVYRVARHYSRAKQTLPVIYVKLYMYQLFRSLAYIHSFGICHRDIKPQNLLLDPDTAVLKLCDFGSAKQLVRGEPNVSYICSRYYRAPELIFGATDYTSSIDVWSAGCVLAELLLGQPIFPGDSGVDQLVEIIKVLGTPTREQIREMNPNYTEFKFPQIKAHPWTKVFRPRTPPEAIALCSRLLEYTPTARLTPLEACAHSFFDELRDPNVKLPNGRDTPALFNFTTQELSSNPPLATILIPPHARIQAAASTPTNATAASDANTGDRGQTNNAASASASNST

- IC50 (Examples 265-291): 12.5 nM
Compound: CN(c1nc(-c2ccncc2F)cc(=O)n1C)[C@H]1[C@@H]2CN(c3nnnn3C3CCCC3)C[C@@H]21 [Example 284, 2-{[(1R,5S,6s)-3-(1-Cyclopentyl-1H-tetrazol-5-yl)-3-azabicyclo[3.1.0]hex-6-yl](methyl)amino}-6-(3-fluoropyridin-4-yl)-3-methylpyrimidin-4(3H)-one]

- inhibition at 1 µM (Examples 236-262): 47%
Compound: Cn1c(N2CC[C@@H]3CN(Cc4ccccc4)C[C@@H]32)nc(-c2ccncc2)cc1=O [Example 251, 2-[(3a,R6,aR)-5-Benzylhexahydropyrro-lo[34-b]pyrrol-1(2H)-yl]-3-methyl-6-pyridin-4-ylpyrimidin-4(3H)-one]

- IC50 (Examples 62-155): 13.8 nM
Compound: CCCC(=O)N1C[C@@H]2[C@H](C1)[C@H]2N(C)c1nc(-c2ccncc2F)cc(=O)n1C [Example 138, 2-{[(1R,5S,6s)-3-Butyryl-3-azabicyclo[3.1.0]hex-6-yl](methyl)amino}-6-(3-fluoropyridin-4-yl)-3-methylpyrimidin-4(3H)-one]

- IC50 (Examples 62-155): 18.3 nM
Compound: CC(C)CC(=O)N1C[C@@H]2[C@H](C1)[C@H]2N(C)c1nc(-c2ccncc2F)cc(=O)n1C [Example 110, 6-(3-Fluoropyridin-4-yl)-3-methyl-2-{methyl[(1R,5S,6s)-3-(3-methylbutanoyl)-3-azabicyclo[3.1.0]hex-6-yl]amino}pyrimidin-4(3H)-one]

- inhibition at 1 µM (Examples 201-221): 88%
Compound: COC(=O)N1CC[C@@]2(C)C[C@H](N(C)c3nc(-c4ccncc4)cc(=O)n3C)CC[C@@H]12 [Example 216, Methyl (3a,S5,R7,aR)-3a-methyl-5-[methyl(1-methyl-6-oxo-4-pyridin-4-yl-16-dihydropyrimidin-2-yl)amino]octahydro-1H-indole-1-carboxylate]

- inhibition at 1 µM (Examples 157-199): 97%
Compound: CCN(c1nc(-c2ccncc2)cc(=O)n1C)C1CCN(S(=O)(=O)Cc2ccccc2)C1 (stereo not shown) [Example 198, 2-{[1-(Benzylsulfonyl)pyrrolidin-3-yl](ethyl)amino}-3-methyl-6-pyridin-4-ylpyrimidin-4(3H)-one]

- inhibition at 1 µM (Examples 201-221): 82%
Compound: COC(=O)N1CCC(Nc2nc(-c3ccncc3)cc(=O)n2C)C1 (stereo not shown) [Example 204, Methyl 3-[(1-methyl-6-oxo-4-pyridin-4-yl-16-dihydropyrimidin-2-yl)amino]pyrrolidine-1-carboxylate]

The remaining lines, values behind:

Compound: Cn1c(NCC2CCCCN2C(=O)OC(C)(C)C)nc(-c2ccncc2)cc1=O (stereo not shown) [Example 35, tert-butyl 2-{[(1-Methyl-6-oxo-4-pyridin-4-yl-1,6-dihydropyrimidin-2-yl)amino]methyl} piperidine-1-carboxylate]
- IC50 (Examples 1-35): 168 nM

Compound: Cn1c(N2[C@@H]3CC[C@H]2CN(S(=O)(=O)c2ccccc2)C3)nc(-c2ccncc2)cc1=O [Example 169, 3-Methyl-2-[(1R,5S)-3-(phenylsulfonyl)-38-diazabicyclo[3.2.1]oct-8-yl]-6-pyridin-4-ylpyrimidin-4(3H)-one]
- Percent inhibition at 1 μM (Examples 157-199): 92%

Compound: 2-{[(3a,S5,S7,aR)-1- Acetyl-3a- methyloctahydro-1H- indol-5- yl](methyl)amino}-3- methyl-6-pyridin-4- ylpyrimidin-4(3H)-one [Example 50]
- Percent inhibition at 1 μM (GSK-3β cell free enzyme assay, Examples 42-60): 82%

Compound: CN1[C@@H]2CC[C@H]1CN(c1nc(-c3ccncc3)cc(=O)n1C)C2 [Example 238, 3-Methyl-2-[(1R,5S)-8-methyl-38-diazabicyclo[3.2.1]oct-3-yl]-6-pyridin-4-ylpyrimidin-4(3H)-one]
- inhibition at 1 µM (Examples 236-262): 47%

Compound: CN(c1nc(-c2ccncc2F)cc(=O)n1C)[C@H]1[C@@H]2CN(C(=O)C3CCCC3)C[C@@H]21 [Example 108, 2-{[(1R,5S,6s)-3-(Cyclopentylcarbonyl)-3-azabicyclo[3.1.0]hex-6-yl](methyl)amino}-6-(3-fluoropyridin-4-yl)-3-methylpyrimidin-4(3H)-one]
- IC50 (Examples 62-155): 6.39 nM

Compound: Cn1c(NCC2CN(C(=O)c3ccccc3)C2)nc(-c2ccncc2)cc1=O [Example 76, 2-{[(1-Benzoylazetidin-3-yl)methyl]amino}-3-methyl-6-pyridin-4-ylpyrimidin-4(3H)-one]
- IC50 (Examples 62-155): 72.4 nM
